Laboratory results reported in US9902736B2, “1-oxo/acylation-14-acylated oridonin derivative, preparation method therefor and application thereof” (HANGZHOU BENSHENG PHARMACEUTICAL CO., LTD., priority 2012, dated 2018).
≈ marks a conversion by molar mass, not a printed value.

Legend:
K562/ADR = experiment: Leukemia cell growth inhibition, MTT, 72 h; assay type: cell-based; details: Homo sapiens
Text: (§1) Leukemia cell lines: leukemia cell lines: K562/adr (drug-resistant, chronic myeloid leukemia, CML), NB4 (acute promyelocytic leukemia, AML), Kasumi-1 (acute myeloid leukemia M2 type, AML-M2), Jurkat (acute lymphoblastic leukemia, ALL), all of which were donated by Cancer Research Institute of Zhejiang University, China; and H9 (acute lymphoblastic leukemia, ALL), which was purchased from China Center for Type Culture Collection.
(§2) 6000 well-growing leukemia cells were obtained and inoculated into wells of a 96-well cell culture plate. […] On the next day, the 1-oxo/acylated-14-acylated oridonin derivatives of different concentrations were added and mixed uniformly. The plate was placed in a carbon dioxide cell incubator (5% CO2) at 37° C. and was incubated for 72 hours. Then the viable cell concentration was determined by MTT method.

Kasumi-1 = experiment: Leukemia cell growth inhibition, MTT, 72 h; assay type: cell-based; details: Homo sapiens
Text: as §1, §2

H9 = experiment: Leukemia cell growth inhibition, MTT, 72 h; assay type: cell-based, human; details: Homo sapiens, H9; 72 h, MTT
Text: as §1, §2

Jurkat = experiment: Leukemia cell growth inhibition, MTT, 72 h; assay type: cell-based, human; details: for IC50 / IC90: Homo sapiens, Jurkat, 72 h, MTT
Text: as §1, §2

NB4 = experiment: Leukemia cell growth inhibition, MTT, 72 h; assay type: cell-based, human; details: Homo sapiens, NB-4; 72 h, MTT
Text: as §1, §2

RPMI 8226 = experiment: Multiple myeloma cell growth inhibition, MTT, 72 h; assay type: cell-based; details: Homo sapiens
Procedure: Multiple myeloma cell lines: RPMI8226 (multiple myeloma), purchased from Fuxiang Bio-tech Co. Ltd., Shanghai, China.
6000 well-growing cells were obtained and inoculated into wells of a 96-well cell culture plate. […] On the next day, the 1-oxo/acylated-14-acylated oridonin derivatives of different concentrations were added and mixed uniformly. The plate was placed in a carbon dioxide cell incubator (5% CO2) at 37° C. and incubated for 72 hours. Then the viable cell concentration was determined by MTT method.

CNE = experiment: Solid tumor cell growth inhibition, MTT, 72 h; assay type: cell-based, human; details: Homo sapiens, CNE; 72 h, MTT
Procedure: (§3) 6000 well-growing human solid tumor cells were obtained and inoculated into wells of a 96-well cell culture plate. The culture medium was DMEM High Glucose cell culture medium containing 10% fetal bovine serum. The plate was placed in a carbon dioxide cell incubator (5% CO2) at 37° C. and incubated for 24 hours. After added with 1-oxo/acylated-14-acylated oridonin derivatives of different concentration and mixed uniformly, the plate was placed in a carbon dioxide cell incubator (5% CO2) at 37° C. and incubated for 72 hours. Then the viable cell concentration was determined by MTT method.

Hela = experiment: Solid tumor cell growth inhibition, MTT, 72 h; assay type: cell-based, human; details: Homo sapiens, HeLa; 72 h, MTT
Procedure: as §3

Hep-2 = experiment: Solid tumor cell growth inhibition, MTT, 72 h; assay type: cell-based, human; details: Homo sapiens, HEp-2; 72 h, MTT
Procedure: as §3

MGC-803 = experiment: Solid tumor cell growth inhibition, MTT, 72 h; assay type: cell-based, human; details: Homo sapiens, MGC-803; 72 h, MTT
Procedure: as §3

A549 = experiment: Solid tumor cell growth inhibition, MTT, 72 h; assay type: cell-based; details: Homo sapiens
Procedure: as §3

Becap-37 = experiment: Solid tumor cell growth inhibition, MTT, 72 h; assay type: cell-based; details: Homo sapiens
Procedure: as §3

CaEs-17 = experiment: Solid tumor cell growth inhibition, MTT, 72 h; assay type: cell-based; details: Homo sapiens, CaEs17
Procedure: as §3

Hep G2 = experiment: Solid tumor cell growth inhibition, MTT, 72 h; assay type: cell-based; details: Homo sapiens, HepG2
Procedure: as §3

MG-63 = experiment: Solid tumor cell growth inhibition, MTT, 72 h; assay type: cell-based; details: Homo sapiens
Procedure: as §3

PANC-1 = experiment: Solid tumor cell growth inhibition, MTT, 72 h; assay type: cell-based; details: Homo sapiens
Procedure: as §3

PC-3 = experiment: Solid tumor cell growth inhibition, MTT, 72 h; assay type: cell-based; details: Homo sapiens
Procedure: as §3

RKO = experiment: Solid tumor cell growth inhibition, MTT, 72 h; assay type: cell-based; details: Homo sapiens
Procedure: as §3

SK-OV-3 = experiment: Solid tumor cell growth inhibition, MTT, 72 h; assay type: cell-based; details: Homo sapiens, SK-OV-3, 72 h, MTT; for IC50: read-out: IC50 SK-OV-3; for IC90: read-out: IC90 SK-OV-3
Procedure: as §3

U87-MG = experiment: Solid tumor cell growth inhibition, MTT, 72 h; assay type: cell-based; details: Homo sapiens, U-87 MG
Procedure: as §3

`C=C1C(=O)[C@]23[C@H](OC(=O)c4ccc(Cl)cc4)[C@H]1CC[C@H]2[C@@]12CO[C@@]3(O)[C@@H](O)[C@@H]1C(C)(C)CCC2=O` [BS-OR-010] showed an IC50 (K562/ADR) of 0.44 µg/mL (≈ 0.878 µM), an IC90 (K562/ADR) of 1.98 µg/mL (≈ 3.95 µM) and an IC50 (Kasumi-1) of 0.57 µg/mL (≈ 1.14 µM). The IC90 (Kasumi-1) was 1.76 µg/mL (≈ 3.51 µM), the IC50 (H9) was 0.38 µg/mL (≈ 0.759 µM) and the IC90 (H9) was 0.96 µg/mL (≈ 1.92 µM). The IC50 (Jurkat) was 0.48 µg/mL (≈ 0.958 µM), the IC90 (Jurkat) was 6.06 µg/mL (≈ 12.1 µM) and the “anti-Jurkat cell line activity increased” value (Jurkat; as compared with oridonin) was roughly 4 fold. For the same compound, the IC50 (NB4) was 0.15 µg/mL (≈ 0.299 µM), the IC90 (NB4) was 0.95 µg/mL (≈ 1.9 µM) and the IC50 (RPMI 8226) was 0.28 µg/mL (≈ 0.559 µM). It also gave an IC90 (RPMI 8226) of 1.78 µg/mL (≈ 3.55 µM), an IC50 (CNE) of 1.39 µg/mL (≈ 2.77 µM) and an IC90 (CNE) of 5.94 µg/mL (≈ 11.9 µM). For the same compound, the IC50 (Hela) was 1.49 µg/mL (≈ 2.97 µM), the IC90 (Hela) was 5.31 µg/mL (≈ 10.6 µM) and the IC50 (Hep-2) was 1.8 µg/mL (≈ 3.59 µM). It also gave an IC90 (Hep-2) of 9.11 µg/mL (≈ 18.2 µM), an IC50 (MGC-803) of 0.68 µg/mL (≈ 1.36 µM) and an IC90 (MGC-803) of 9.04 µg/mL (≈ 18 µM). The IC50 (A549) was 2.83 µg/mL (≈ 5.65 µM), the IC90 (A549) was 7.29 µg/mL (≈ 14.6 µM) and the IC50 (Becap-37) was 1.03 µg/mL (≈ 2.06 µM). It also gave an IC90 (Becap-37) of 3.72 µg/mL (≈ 7.43 µM), an IC50 (CaEs-17) of 1.1 µg/mL (≈ 2.2 µM) and an IC90 (CaEs-17) of 5.51 µg/mL (≈ 11 µM). The IC50 (Hep G2) was 0.99 µg/mL (≈ 1.98 µM), the IC90 (Hep G2) was 11.7 µg/mL (≈ 23.4 µM) and the IC50 (MG-63) was 0.46 µg/mL (≈ 0.918 µM). For the same compound, the IC90 (MG-63) was 0.95 µg/mL (≈ 1.9 µM), the IC50 (PANC-1) was 1.86 µg/mL (≈ 3.71 µM) and the IC90 (PANC-1) was 10.7 µg/mL (≈ 21.3 µM). The IC50 (PC-3) was 1.66 µg/mL (≈ 3.31 µM), the IC90 (PC-3) was 4.77 µg/mL (≈ 9.52 µM) and the IC50 (RKO) was 0.46 µg/mL (≈ 0.918 µM). The IC90 (RKO) was 0.95 µg/mL (≈ 1.9 µM), the IC50 (SK-OV-3) was 1.66 µg/mL (≈ 3.31 µM) and the IC90 (SK-OV-3) was 4.77 µg/mL (≈ 9.52 µM). For the same compound, the IC50 (U87-MG) was 0.94 µg/mL (≈ 1.88 µM) and the IC90 (U87-MG) was 2.78 µg/mL (≈ 5.55 µM).
Work on `C=C1C(=O)[C@]23[C@H](OC(=O)c4cccnc4)[C@H]1CC[C@H]2[C@@]12CO[C@@]3(O)[C@@H](O)[C@@H]1C(C)(C)CCC2=O` [BS-OR-011] yielded an IC50 (K562/ADR) of 0.75 µg/mL (≈ 1.6 µM), an IC90 (K562/ADR) of 2.35 µg/mL (≈ 5.03 µM) and an IC50 (Kasumi-1) of 1.03 µg/mL (≈ 2.2 µM). It also gave an IC90 (Kasumi-1) of 1.94 µg/mL (≈ 4.15 µM), an IC50 (H9) of 0.56 µg/mL (≈ 1.2 µM) and an IC90 (H9) of 1.23 µg/mL (≈ 2.63 µM). The IC50 (Jurkat) was 0.87 µg/mL (≈ 1.86 µM), the IC90 (Jurkat) was 5.24 µg/mL (≈ 11.2 µM) and the IC50 (NB4) was 0.27 µg/mL (≈ 0.578 µM). For the same compound, the IC90 (NB4) was 0.9 µg/mL (≈ 1.93 µM), the IC50 (RPMI 8226) was 0.9 µg/mL (≈ 1.93 µM) and the IC90 (RPMI 8226) was 1.93 µg/mL (≈ 4.13 µM). It also gave an IC50 (CNE) of 2.26 µg/mL (≈ 4.83 µM), an IC90 (CNE) of 8.1 µg/mL (≈ 17.3 µM) and an IC50 (Hela) of 2.53 µg/mL (≈ 5.41 µM). For the same compound, the IC90 (Hela) was 6.79 µg/mL (≈ 14.5 µM), the IC50 (Hep-2) was 3.8 µg/mL (≈ 8.13 µM) and the IC90 (Hep-2) was 14.1 µg/mL (≈ 30.1 µM). The IC50 (MGC-803) was 1.6 µg/mL (≈ 3.42 µM), the IC90 (MGC-803) was 11.9 µg/mL (≈ 25.5 µM) and the IC50 (A549) was 5.58 µg/mL (≈ 11.9 µM). The IC90 (A549) was 9.47 µg/mL (≈ 20.3 µM), the IC50 (Becap-37) was 1.96 µg/mL (≈ 4.19 µM) and the IC90 (Becap-37) was 6.11 µg/mL (≈ 13.1 µM). For the same compound, the IC50 (CaEs-17) was 1.41 µg/mL (≈ 3.02 µM), the IC90 (CaEs-17) was 5.24 µg/mL (≈ 11.2 µM) and the IC50 (Hep G2) was 2.53 µg/mL (≈ 5.41 µM). For the same compound, the IC90 (Hep G2) was 12.6 µg/mL (≈ 27 µM), the IC50 (MG-63) was 0.74 µg/mL (≈ 1.58 µM) and the IC90 (MG-63) was 3.01 µg/mL (≈ 6.44 µM). The IC50 (PANC-1) was 2.99 µg/mL (≈ 6.4 µM), the IC90 (PANC-1) was 7.92 µg/mL (≈ 16.9 µM) and the IC50 (PC-3) was 2.53 µg/mL (≈ 5.41 µM). The IC90 (PC-3) was 4.87 µg/mL (≈ 10.4 µM), the IC50 (RKO) was 0.59 µg/mL (≈ 1.26 µM) and the IC90 (RKO) was 1.44 µg/mL (≈ 3.08 µM). For the same compound, the IC50 (SK-OV-3) was 2.53 µg/mL (≈ 5.41 µM), the IC90 (SK-OV-3) was 4.87 µg/mL (≈ 10.4 µM) and the IC50 (U87-MG) was 1.17 µg/mL (≈ 2.5 µM). The IC90 (U87-MG) was 3.29 µg/mL (≈ 7.04 µM).
